Laboratory results as given in patent US4182895A, “1-Amino-lower-alkyl-3,4-diphenyl-1H-pyrazoles” (Sterling Drug Inc., priority 1978, dated 1980).

Experiments:
[1] = Rosenthal, 1953; cited from earlier work
[2] = Buchi et al., 1955; cited from earlier work
tetrabenazine = assay: Anti-tetrabenazine (TB) test, anti-depressant activity: photocell activity counts after tetrabenazine; assay type: in vivo, Male Swiss-Webster mice; settings: 4 h before tetrabenazine 50 mg./kg. i.p.
Protocol: The test procedure used to determine the anti-depressant activity of the compounds of the invention is described as follows: Male Swiss-Webster mice (Taconic Farms) weighing from 19-24 g. were divided into four groups of nine to ten mice per group. […] The fourth group received the vehicle only. Four hours following medication, all the control and the test animals were medicated with 50 mg./kg. (i.p.) of tetrabenazine and were placed in a photocell activity cage [described by Harris et al., Psychon. Sci., 4, 267 (1966)] equipped with a digital counter to record the number of times that a light beam impinging on a photocell is interrupted during the test period. Beginning thirty minutes after tetrabenazine medication, the photocell units were activated and the photocell counts recorded over a fifty minute period.

[3] = system: acetylcholine-induced abdominal constriction; assay: Acetylcholine-induced abdominal constriction test (Ach), analgesic activity; assay type: in vivo, mice; settings: for ED50: Mus musculus
Description: (§1) The test procedures used to determine the analgesic activities of the compounds of the invention have been described in detail in the prior art and are as follows: The acetylcholine-induced abdominal constriction test, which is a primary analgesic screening test to measure the ability of a test agent to suppress acetylcholine-induced abdominal constriction in mice described by Collier et al., Brit. J. Pharmacol. Chemotherap. 32, 295 (1968) and the phenyl p-quinone-induced writhing test, also a primary analgesic screening test, designed to measure the ability of a test agent to prevent phenyl p-quinone-induced writhing in mice, described by Pearl and Harris, J. Pharmacol. Exptl. Therap. 154, 319-323 (1966).

[4] = system: phenyl p-quinone-induced writhing; assay: Phenyl p-quinone-induced writhing test (PPQ), analgesic activity; assay type: in vivo, mice; settings: Mus musculus, po
Description: as §1

[5] = Tested at 4, 16 and 64 mg./kg. (p.o.), activity = significant difference, 0.05 level or less

## NCCn1nc(-c2ccccc2)cc1-c1ccccc1 [1-(2-aminoethyl)-3,5-diphenyl-1H-pyrazole]
[1]
  local anesthetic activity: having local anesthetic activity

## Cc1cn(CCN(C)C)nc1-c1ccccc1 [1-(2-dimethylaminoethyl)-3-phenyl-4-methyl-1H-pyrazole]
[2]
  analgesic activity: analgesic activity is asserted

## Cl.Cl.NCCCn1cc(-c2ccccc2)c(-c2ccccc2)n1 [Example 1A, 1-(3-aminopropyl)-3,4-diphenyl-1H-pyrazole dihydrochloride]
tetrabenazine; [5]
  TB (anti-tetrabenazine activity): Inac.
[3]; sc
  ED50: 11 mg/kg

## CNCCCn1cc(-c2ccccc2)c(-c2ccccc2)n1.Cl [Example 1B, 1-[3-(N-methylamino)propyl]-3,4-diphenyl-1H-pyrazole hydrochloride]
tetrabenazine; at 4 mg./kg.
  TB (anti-tetrabenazine activity): Inac.
tetrabenazine; at 16 and 64 mg./kg.
  TB (anti-tetrabenazine activity): Act.

## CN(C)CCCn1cc(-c2ccccc2)c(-c2ccccc2)n1.Cl.Cl [Example 2, 1-[3-(N,N-dimethylamino)propyl]-3,4-diphenyl-1H-pyrazole dihydrochloride]
tetrabenazine; at 2 mg./kg.
  TB (anti-tetrabenazine activity): Inac.
tetrabenazine; at 4, 8 and 16 mg./kg.
  TB (anti-tetrabenazine activity): Act.

## CCN(CC)CCn1cc(-c2ccccc2)c(-c2ccccc2)n1.Cl [Example 3, 1-[2-(N,N-diethylamino)ethyl]-3,4-diphenyl-1H-pyrazole hydrochloride]
[4]
  ED50: 90 mg/kg
tetrabenazine; [5]
  TB (anti-tetrabenazine activity): Inac.
[3]; 10 mg./kg. s.c.
  Ach % effect: 53%
[3]; 50 mg./kg. s.c.
  Ach % effect: 67%
[3]; 100 mg./kg. s.c.
  Ach % effect: 60%
[3]; po
  ED50: 29 mg/kg

## CCN(CC)CCCn1cc(-c2ccccc2)c(-c2ccccc2)n1.Cl [Example 4, 1-[3-(N,N-diethylamino)propyl]-3,4-diphenyl-1H-pyrazole hydrochloride]
tetrabenazine; [5]
  TB (anti-tetrabenazine activity): Inac.
[3]; sc
  ED50: 2.2 mg/kg
